From a melting point compilation (Tetko et al.; mined from patent text by program, amines drawn as free bases though some values may be those of a salt)

melting point [°C]	SMILES
123 to 124	CCOC(=O)C=Cc1cc(N2C(=O)C3C4CC4CN3C2=O)c(F)cc1Cl (centres undefined)
103 to 105	c1ccc(N2CCN(Cc3coc4ccccc34)CC2)cc1
118 to 119	CCC(O)(CC(N)=O)c1ccc(Br)cc1 (centres undefined)
155 to 157	Cc1ccc2oc(NC(CN3CCN(Cc4ccc(Cl)c(Cl)c4)CC3)C(C)C)nc2c1 (centres undefined)
143 to 145	CCOC(=O)C(=CNc1coc2ccc(Cl)cc2c1=O)C(=O)OCC
117	CCCOc1cc(OC)cc(O)c1C(=O)C=Cc1ccc(OC)cc1
132 to 133	O=C(NCC(=O)c1ccco1)c1ccccc1
98 to 100	CC1CCC(C(C)C)C(OC(=O)C(=O)Nc2nc(-c3ccccc3)cs2)C1 (centres undefined)
50 to 51	CCCCCCCCCCCCn1nnnc1Cc1ccccc1
97 to 100	Nc1ccc(C(=S)OC2CCCCC2)c(Cl)c1
204 to 205	CCOC(=O)C=Cc1c(N)nc(C)c(NC(C)=O)c1C
132 to 135	COC(=O)c1ccccc1-c1nn[nH]n1
242	COc1cc(N)c(Cl)cc1C(=O)Cl
122 to 126	COc1ccc(C=CCN2CCc3nc(N)sc3CC2)cc1OC
142 to 143	CCOC(=O)c1c(OC(C)C)nc2cc(OC)c(OC)cc2c1-c1ccc(OC)c(OC)c1
150 to 152	O=[N+]([O-])c1ccc(C(F)(F)F)c(Nc2nc3ccccc3o2)c1
227 to 229	CC1(C)CN(c2cccc(-c3cnc4[nH]cc(C(=O)C(C)(C)C)c4n3)c2)C1
163 to 165	OC(c1ccccc1)(c1ccc(Cl)cc1)c1ncc[nH]1 (centres undefined)
> 200	CC(C)(C)N(NC(=O)c1ccccc1)C(=O)c1cccs1
99 to 101	O=C(O)CCCCCc1nn(-c2ccc(Cl)cc2)c2c1CCC2
> 270	CCCn1c(=O)c2[nH]c(C3CCCC3)nc2n(CCc2ccc(NC(=O)C(C)C)cc2)c1=O
194 to 196	CC(=O)NC[C@H]1CN(c2ccc(C(=O)c3cnc4ccc(Cl)nn34)cc2)C(=O)O1
185 to 186	CNC(=NCCS(=O)Cc1[nH]cnc1C)NC#N (centres undefined)
176 to 178	COC(=O)c1ccc(C(=O)NS(=O)(=O)c2ccc(CCNC(=O)CC(C)C)cc2)cn1
186	Nc1ccc(C(=O)O)c2c1OCCO2

melting point [°C]	SMILES
162 to 163	CCONC(=O)c1cc(-c2ncc(C(F)(F)F)cc2Cl)ccc1Cl
174 to 176	CS(=O)(=O)Nc1ccc(NS(C)(=O)=O)c(S)c1
190 to 191	Cc1ccc(CS(=O)c2nc3cc4c(cc3[nH]2)CCC4)nc1 (centres undefined)
135 to 142	Cc1noc(NS(=O)(=O)c2ccccc2-c2ccc(-c3ncco3)cc2CN2Cc3ccccc3C2=O)c1C
225 to 227	NC(=O)C1CCN(C(=O)CNC(=O)CNC(=O)CN2CCCC2=O)CC1
83 to 85	COc1ccc2cc([C@H](C)C(=O)OCC(=O)N3CCC(CCO[N+](=O)[O-])CC3)ccc2c1
208	COc1nnc(SCC2=C(C(=O)O)N3C(=O)C(NC(=O)Cc4csc(=O)s4)C3SC2)s1 (centres undefined)
157 to 158	c1ccc(-c2nc3c4ccccc4ccn3n2)cc1
126	CC(=O)CCN(CCN)c1nc2cc(Cl)ccc2o1
95	COc1ccc(C(=O)Nc2ccc3ccc(Oc4ccccc4)nc3n2)nn1
70 to 72	CCOC(=O)c1ncn(Cc2c(F)cccc2F)c1C(=O)OCC
72 to 74	Cc1ccc(CN2CCC(O)CC2)cc1
156	CC[C@H]1C(=O)N(S(=O)(=O)c2ccc3ccccc3c2)[C@H]2CCN(C(=O)OCc3ccccc3)[C@H]12 (relative stereo)
174	c1cncc(Nc2ncc(-c3ccncn3)c(-c3ccco3)n2)c1
42 to 44	Clc1ccc(CSCc2ccc(Cl)cc2)cc1
184 to 185	CS(=O)(=O)c1ccc(C2=C(c3ccccc3)C(=O)C3(CCCC3)O2)cc1
98 to 100	CCN(Cc1cc(C(C)=O)ccc1NC(C)=O)C1CCCCC1
122	CCOC(=O)C1=COc2cc(C(C)=O)ccc2O1
99.2 to 99.8	CC(C)(C)OC(=O)NC1CCN(CC(F)(F)F)CC1
151 to 152	O=C(O)[C@H](Cc1ccc(C(F)(F)F)cc1)[C@@H](O)c1cccc2ccccc12 (racemic)
244 to 246	NC(=O)c1c(F)ccc(OCc2nc3cc(Br)ccc3s2)c1F
108 to 109	Cn1cnc2c(NC3CCCC3)ncnc21
195 to 196	NCC(=O)Nc1ccc(S(=O)(=O)c2cccc(Cl)c2)cc1
177 to 178	COc1ccc(S(=O)(=O)Nc2cccc(C)c2N)cc1
153 to 155	CC(C)(C)c1ocnc1C=C(O)C(=O)O

melting point [°C]	SMILES
154	Nc1c(SC(F)(F)F)nc(Br)n1-c1c(Cl)cc(C(F)(F)F)cc1Cl
101	CN1CCC(OC(c2cccc(C#CCN)c2)c2nc3ccccc3[nH]2)CC1 (centres undefined)
215 to 220	COc1ccccc1NC(=O)Nc1nc(Nc2ccc(-c3ccccc3)cc2)nc(N(CCC(=O)O)Cc2ccc(Cl)c(Cl)c2)n1
125 to 127	Cc1ccc(C(=O)COc2ccc(Br)cc2CO)cc1
177 to 179	CC(=O)NC[C@H]1CN(c2ccc(-c3noc(C)n3)c(F)c2)C(=O)O1
184 to 185	CCN(CC)Cc1ccc2[nH]c(-c3ccccc3F)cc(=O)c2c1
218 to 219	COc1ccc(NC(=O)Nc2ccccc2)cc1NC(=S)Nc1cc(Cl)cc(Cl)c1
174 to 175	COc1ccc(Nc2nccc(-c3ccncc3)n2)cc1
169 to 170	CCCCc1oc2ccccc2c1-c1ncc(-c2ccc3cc(OCc4ccc(C(=O)OC)cc4)ccc3c2)o1
71	Cc1c(C(F)(F)C(F)(F)F)ncn1-c1ncc(C(F)(F)F)cc1Cl
> 250	COc1ccc2ncc(C#N)c(Nc3ccc4nn[nH]c4c3)c2c1
121 to 122	COc1nc2cc(Cl)c(Cl)c(CSCc3ccccc3)c2nc1OC
147 to 149	CCOC(=O)c1cnn(-c2c(F)cc(C(F)(F)F)cc2Cl)c1N
157 to 159	c1ccc(CN2CCN(Cc3cc4ccccc4[nH]3)CC2)cc1
70 to 73	C#CC1(Oc2ccc(F)cc2[N+](=O)[O-])CCN(C)CC1
121 to 122	O=C(CCC(=O)N1CCC(c2ccc(Cl)cc2)CC1)c1ccc2c(c1)CNCC2
147 to 148	CN1CC(CN2CCC(C(O)(c3ccc(F)cc3)c3ccc(F)cc3)CC2)OC1=O (centres undefined)
182	COc1ncc(NC(=S)NC(=O)c2ccccc2)c(OC)n1
112 to 114	CN(C)Cc1cc(Cc2ccccc2)c(O)c(Cc2ccccc2)c1
118 to 123	CC[C@@H](NC(=O)CCCCl)C(N)=O
216	Cc1ccc(C=NNC(=O)c2ccc(O)cc2)s1
178 to 179	O=C(O)C1CC=C(c2c(-c3ccccc3)[nH]c3ccccc23)CC1 (centres undefined)
168 to 170	S=C(NC(=S)c1c(Cl)cccc1Cl)Nc1ccc(Cl)c(Cl)c1

SMILES	melting point [°C]
C=CCN1C(=O)C(F)N=C(c2ccccc2)c2cc(Cl)ccc21 (centres undefined)	138 to 140
